According to PubChem BioAssay (NCI):
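Compound exposure: 48 hours, 5 concentrations, 96-well plates. Definition used: TGI = concentration required for complete inhibition of growth.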

Test system: 786-0 renal
Assay: growth of human tumour cells (NCI), 48 h

`CC(C)(C)OC(=O)CCCCCNC(=O)CCCCCNC(=O)CCC(CN(CC(=O)OCc1ccccc1)CC(=O)OCc1ccccc1)N(CC(=O)OCc1ccccc1)CC(=O)OCc1ccccc1` (stereo not given) and `COC(=O)C(=O)Nc1cc2c3c(c1)Oc1cccc4c1C3(C)c1c(cccc1O2)O4` cannot be ordered by TGI: over 100 µM for the first, over 79.7 µM for the second.

Compound `O=[N+]([O-])/C(Cl)=C(/C(Cl)=C(Cl)Cl)N1CCOCC1` has a TGI of 10 µM.

Test system: COLO 205 colon
Assay: growth of human tumour cells (NCI), 48 h

`CC(C)(C)OC(=O)CCCCCNC(=O)CCCCCNC(=O)CCC(CN(CC(=O)OCc1ccccc1)CC(=O)OCc1ccccc1)N(CC(=O)OCc1ccccc1)CC(=O)OCc1ccccc1` (stereo not given) and `COC(=O)C(=O)Nc1cc2c3c(c1)Oc1cccc4c1C3(C)c1c(cccc1O2)O4` cannot be ordered by TGI: over 100 µM for the first, over 31.6 µM for the second.

For `O=[N+]([O-])/C(Cl)=C(/C(Cl)=C(Cl)Cl)N1CCOCC1`, the TGI was 5.45 µM.

Test system: DU-145 prostate
Assay: growth of human tumour cells (NCI), 48 h

`CC(C)(C)OC(=O)CCCCCNC(=O)CCCCCNC(=O)CCC(CN(CC(=O)OCc1ccccc1)CC(=O)OCc1ccccc1)N(CC(=O)OCc1ccccc1)CC(=O)OCc1ccccc1` (stereo not given) and `COC(=O)C(=O)Nc1cc2c3c(c1)Oc1cccc4c1C3(C)c1c(cccc1O2)O4` cannot be ordered by TGI: over 100 µM for the first, over 66.3 µM for the second.

In the case of `O=[N+]([O-])/C(Cl)=C(/C(Cl)=C(Cl)Cl)N1CCOCC1`, the TGI is reported as 26.9 µM.

Test system: HCC-2998 colon
Assay: growth of human tumour cells (NCI), 48 h

`CC(C)(C)OC(=O)CCCCCNC(=O)CCCCCNC(=O)CCC(CN(CC(=O)OCc1ccccc1)CC(=O)OCc1ccccc1)N(CC(=O)OCc1ccccc1)CC(=O)OCc1ccccc1` (stereo not given) and `COC(=O)C(=O)Nc1cc2c3c(c1)Oc1cccc4c1C3(C)c1c(cccc1O2)O4` cannot be ordered by TGI: over 100 µM for the first, over 100 µM for the second.

Work on `O=[N+]([O-])/C(Cl)=C(/C(Cl)=C(Cl)Cl)N1CCOCC1` yielded a TGI of 7.52 µM.

Test system: HCT-116 colon
Assay: growth of human tumour cells (NCI), 48 h

`CC(C)(C)OC(=O)CCCCCNC(=O)CCCCCNC(=O)CCC(CN(CC(=O)OCc1ccccc1)CC(=O)OCc1ccccc1)N(CC(=O)OCc1ccccc1)CC(=O)OCc1ccccc1` (stereo not given) and `COC(=O)C(=O)Nc1cc2c3c(c1)Oc1cccc4c1C3(C)c1c(cccc1O2)O4` cannot be ordered by TGI: over 100 µM for the first, over 100 µM for the second.

With `O=[N+]([O-])/C(Cl)=C(/C(Cl)=C(Cl)Cl)N1CCOCC1` the TGI was 7.51 µM.

Test system: HOP-92 NSCLC
Assay: growth of human tumour cells (NCI), 48 h

`CC(C)(C)OC(=O)CCCCCNC(=O)CCCCCNC(=O)CCC(CN(CC(=O)OCc1ccccc1)CC(=O)OCc1ccccc1)N(CC(=O)OCc1ccccc1)CC(=O)OCc1ccccc1` (stereo not given) and `COC(=O)C(=O)Nc1cc2c3c(c1)Oc1cccc4c1C3(C)c1c(cccc1O2)O4` cannot be ordered by TGI: over 100 µM for the first, over 100 µM for the second.

Compound `O=[N+]([O-])/C(Cl)=C(/C(Cl)=C(Cl)Cl)N1CCOCC1` has a TGI of 4.88 µM.

Test system: HS 578T breast
Assay: growth of human tumour cells (NCI), 48 h

`CC(C)(C)OC(=O)CCCCCNC(=O)CCCCCNC(=O)CCC(CN(CC(=O)OCc1ccccc1)CC(=O)OCc1ccccc1)N(CC(=O)OCc1ccccc1)CC(=O)OCc1ccccc1` (stereo not given) and `COC(=O)C(=O)Nc1cc2c3c(c1)Oc1cccc4c1C3(C)c1c(cccc1O2)O4` cannot be ordered by TGI: over 100 µM for the first, over 100 µM for the second.

`O=[N+]([O-])/C(Cl)=C(/C(Cl)=C(Cl)Cl)N1CCOCC1` was tested, and the TGI was 14.9 µM.

Test system: HT29 colon
Assay: growth of human tumour cells (NCI), 48 h

`CC(C)(C)OC(=O)CCCCCNC(=O)CCCCCNC(=O)CCC(CN(CC(=O)OCc1ccccc1)CC(=O)OCc1ccccc1)N(CC(=O)OCc1ccccc1)CC(=O)OCc1ccccc1` (stereo not given) and `COC(=O)C(=O)Nc1cc2c3c(c1)Oc1cccc4c1C3(C)c1c(cccc1O2)O4` cannot be ordered by TGI: over 100 µM for the first, over 40.6 µM for the second.

`O=[N+]([O-])/C(Cl)=C(/C(Cl)=C(Cl)Cl)N1CCOCC1` was tested, and the TGI was 14.2 µM.

Test system: K-562 leukemia
Assay: growth of human tumour cells (NCI), 48 h

`CC(C)(C)OC(=O)CCCCCNC(=O)CCCCCNC(=O)CCC(CN(CC(=O)OCc1ccccc1)CC(=O)OCc1ccccc1)N(CC(=O)OCc1ccccc1)CC(=O)OCc1ccccc1` (stereo not given) and `COC(=O)C(=O)Nc1cc2c3c(c1)Oc1cccc4c1C3(C)c1c(cccc1O2)O4` cannot be ordered by TGI: over 100 µM for the first, over 100 µM for the second.

In the case of `O=[N+]([O-])/C(Cl)=C(/C(Cl)=C(Cl)Cl)N1CCOCC1`, the TGI is reported as 12.8 µM.

Test system: M14 melanoma
Assay: growth of human tumour cells (NCI), 48 h

`CC(C)(C)OC(=O)CCCCCNC(=O)CCCCCNC(=O)CCC(CN(CC(=O)OCc1ccccc1)CC(=O)OCc1ccccc1)N(CC(=O)OCc1ccccc1)CC(=O)OCc1ccccc1` (stereo not given) and `COC(=O)C(=O)Nc1cc2c3c(c1)Oc1cccc4c1C3(C)c1c(cccc1O2)O4` cannot be ordered by TGI: over 100 µM for the first, over 100 µM for the second.

With `O=[N+]([O-])/C(Cl)=C(/C(Cl)=C(Cl)Cl)N1CCOCC1` the TGI was 7.66 µM.

Test system: MALME-3M melanoma
Assay: growth of human tumour cells (NCI), 48 h

`CC(C)(C)OC(=O)CCCCCNC(=O)CCCCCNC(=O)CCC(CN(CC(=O)OCc1ccccc1)CC(=O)OCc1ccccc1)N(CC(=O)OCc1ccccc1)CC(=O)OCc1ccccc1` (stereo not given) and `COC(=O)C(=O)Nc1cc2c3c(c1)Oc1cccc4c1C3(C)c1c(cccc1O2)O4` cannot be ordered by TGI: over 100 µM for the first, over 100 µM for the second.

`O=[N+]([O-])/C(Cl)=C(/C(Cl)=C(Cl)Cl)N1CCOCC1` showed a TGI of 3.07 µM.

Test system: MCF7 breast
Assay: growth of human tumour cells (NCI), 48 h

`CC(C)(C)OC(=O)CCCCCNC(=O)CCCCCNC(=O)CCC(CN(CC(=O)OCc1ccccc1)CC(=O)OCc1ccccc1)N(CC(=O)OCc1ccccc1)CC(=O)OCc1ccccc1` (stereo not given) and `COC(=O)C(=O)Nc1cc2c3c(c1)Oc1cccc4c1C3(C)c1c(cccc1O2)O4` cannot be ordered by TGI: over 100 µM for the first, over 100 µM for the second.

`O=[N+]([O-])/C(Cl)=C(/C(Cl)=C(Cl)Cl)N1CCOCC1` gave a TGI of 8.25 µM.

Test system: MOLT-4 leukemia
Assay: growth of human tumour cells (NCI), 48 h

`CC(C)(C)OC(=O)CCCCCNC(=O)CCCCCNC(=O)CCC(CN(CC(=O)OCc1ccccc1)CC(=O)OCc1ccccc1)N(CC(=O)OCc1ccccc1)CC(=O)OCc1ccccc1` (stereo not given) and `COC(=O)C(=O)Nc1cc2c3c(c1)Oc1cccc4c1C3(C)c1c(cccc1O2)O4` cannot be ordered by TGI: over 100 µM for the first, over 100 µM for the second.

`O=[N+]([O-])/C(Cl)=C(/C(Cl)=C(Cl)Cl)N1CCOCC1` showed a TGI of 7.32 µM.

Test system: NCI-H460 lung
Assay: growth of human tumour cells (NCI), 48 h

`CC(C)(C)OC(=O)CCCCCNC(=O)CCCCCNC(=O)CCC(CN(CC(=O)OCc1ccccc1)CC(=O)OCc1ccccc1)N(CC(=O)OCc1ccccc1)CC(=O)OCc1ccccc1` (stereo not given) and `COC(=O)C(=O)Nc1cc2c3c(c1)Oc1cccc4c1C3(C)c1c(cccc1O2)O4` cannot be ordered by TGI: over 100 µM for the first, over 100 µM for the second.

`O=[N+]([O-])/C(Cl)=C(/C(Cl)=C(Cl)Cl)N1CCOCC1` was tested, and the TGI was 18.4 µM.

Test system: NCI-H522 lung
Assay: growth of human tumour cells (NCI), 48 h

`CC(C)(C)OC(=O)CCCCCNC(=O)CCCCCNC(=O)CCC(CN(CC(=O)OCc1ccccc1)CC(=O)OCc1ccccc1)N(CC(=O)OCc1ccccc1)CC(=O)OCc1ccccc1` (stereo not given) and `COC(=O)C(=O)Nc1cc2c3c(c1)Oc1cccc4c1C3(C)c1c(cccc1O2)O4` cannot be ordered by TGI: over 100 µM for the first, over 100 µM for the second.

Work on `O=[N+]([O-])/C(Cl)=C(/C(Cl)=C(Cl)Cl)N1CCOCC1` yielded a TGI of 4.73 µM.

Test system: NCI/ADR-RES ovarian
Assay: growth of human tumour cells (NCI), 48 h

`CC(C)(C)OC(=O)CCCCCNC(=O)CCCCCNC(=O)CCC(CN(CC(=O)OCc1ccccc1)CC(=O)OCc1ccccc1)N(CC(=O)OCc1ccccc1)CC(=O)OCc1ccccc1` (stereo not given) and `COC(=O)C(=O)Nc1cc2c3c(c1)Oc1cccc4c1C3(C)c1c(cccc1O2)O4` cannot be ordered by TGI: over 100 µM for the first, over 100 µM for the second.

In the case of `O=[N+]([O-])/C(Cl)=C(/C(Cl)=C(Cl)Cl)N1CCOCC1`, the TGI is reported as 14.9 µM.

Test system: OVCAR-4 ovarian
Assay: growth of human tumour cells (NCI), 48 h

`CC(C)(C)OC(=O)CCCCCNC(=O)CCCCCNC(=O)CCC(CN(CC(=O)OCc1ccccc1)CC(=O)OCc1ccccc1)N(CC(=O)OCc1ccccc1)CC(=O)OCc1ccccc1` (stereo not given) and `COC(=O)C(=O)Nc1cc2c3c(c1)Oc1cccc4c1C3(C)c1c(cccc1O2)O4` cannot be ordered by TGI: over 100 µM for the first, over 100 µM for the second.

`O=[N+]([O-])/C(Cl)=C(/C(Cl)=C(Cl)Cl)N1CCOCC1` showed a TGI of 16.7 µM.

Test system: OVCAR-8 ovarian
Assay: growth of human tumour cells (NCI), 48 h

`CC(C)(C)OC(=O)CCCCCNC(=O)CCCCCNC(=O)CCC(CN(CC(=O)OCc1ccccc1)CC(=O)OCc1ccccc1)N(CC(=O)OCc1ccccc1)CC(=O)OCc1ccccc1` (stereo not given) and `COC(=O)C(=O)Nc1cc2c3c(c1)Oc1cccc4c1C3(C)c1c(cccc1O2)O4` cannot be ordered by TGI: over 100 µM for the first, over 100 µM for the second.

For `O=[N+]([O-])/C(Cl)=C(/C(Cl)=C(Cl)Cl)N1CCOCC1`, the TGI was 11.9 µM.

Test system: SN12C renal
Assay: growth of human tumour cells (NCI), 48 h

`CC(C)(C)OC(=O)CCCCCNC(=O)CCCCCNC(=O)CCC(CN(CC(=O)OCc1ccccc1)CC(=O)OCc1ccccc1)N(CC(=O)OCc1ccccc1)CC(=O)OCc1ccccc1` (stereo not given) and `COC(=O)C(=O)Nc1cc2c3c(c1)Oc1cccc4c1C3(C)c1c(cccc1O2)O4` cannot be ordered by TGI: over 100 µM for the first, over 100 µM for the second.

`O=[N+]([O-])/C(Cl)=C(/C(Cl)=C(Cl)Cl)N1CCOCC1` was tested, and the TGI was 20 µM.

Test system: T-47D breast
Assay: growth of human tumour cells (NCI), 48 h

`CC(C)(C)OC(=O)CCCCCNC(=O)CCCCCNC(=O)CCC(CN(CC(=O)OCc1ccccc1)CC(=O)OCc1ccccc1)N(CC(=O)OCc1ccccc1)CC(=O)OCc1ccccc1` (stereo not given) and `COC(=O)C(=O)Nc1cc2c3c(c1)Oc1cccc4c1C3(C)c1c(cccc1O2)O4` cannot be ordered by TGI: over 100 µM for the first, over 100 µM for the second.

For `O=[N+]([O-])/C(Cl)=C(/C(Cl)=C(Cl)Cl)N1CCOCC1`, the TGI was 9.36 µM.
